From patent US9314485B2, “Use of PI3K M-TOR and AKT inhibitors to induce FOXP3 expression and generate regulatory T cells” (Medical Research Council, priority 2006, dated 2016) come the findings set out here.

The experiment relates to naive CD62LhiCD4+CD25− LN T cells. The experiment can be described thus: Foxp3 induction in newly activated naive CD4 T cells (intracellular staining). In kind it is cell-based, mouse.

For the substance TGFβ, the “percentage of cells expressing Foxp3” value (added 18 hours after activation with TCR signal deprivation, read within 24-48 hours) is on record as 46.0±15.1%. For the same substance, the “% Foxp3+ cells, activation with anti-TCR only” value (no costimulation, average of two experiments) is 7%. Further, the “Foxp3 expression in control cultures, TCR signal deprived cultures subtracted” value (serum free AIM-V medium, without anti TGFβ and SB431542, 24-48 hours / 2 days) was determined as 22.3±7.0%. Further, the “% Foxp3+ cells, activation with anti-TCR + anti-CD28” value (with costimulation, average of two experiments) stood at 46%.
